Experimental data reported in ChEMBL document CHEMBL3045623, “Pyrazole derivatives as photosynthetic electron transport inhibitors: new leads and structure-activity relationship” (J Agric Food Chem, 2005).

Target: Photosystem II protein D1 (Spinacia oleracea, UniProt P69560)
Experiment: Inhibition of photosynthetic electron transport at the PSII level in intact chloroplasts from Spinacia oleracea (spinach) leaves assessed as inhibition of in vitro activity by Hill reaction assay

Row | IC50 (read-out: IC50) [µM] | Compound | other results
1 | 100 | Cc1onc(C(=O)NC2CC2)c1C(=O)O | 
2 | > 100000 | Cc1[nH]nc(C(=O)NC2CC2)c1C(=O)O | pIC50: < 1
3 | 1190 | Cc1c(C(=O)O)c(C(=O)NC2CC2)nn1C | 
4 | 290 | Cc1onc(C(=O)NC(C)(C)C)c1C(=O)O | 
5 | 670 | Cc1c(C(=O)O)c(C(=O)NC(C)(C)C)nn1C | 
6 | 7600 | Cc1c(C(=O)O)c(C(=O)NC(C)(C)C)nn1-c1ccccc1 | 
7 | 950 | Cc1c(C(=O)O)c(C(=O)NC(C)(C)C)nn1-c1ccc(Cl)cc1 | 
8 | 1040 | Cc1c(C(=O)O)c(C(=O)NC(C)(C)C)nn1-c1c(Cl)cc(C(F)(F)F)cc1Cl | 
9 | > 100000 | Cc1c(C(=O)O)c(C(=O)NC(C)(C)C)nn1C(C)(C)C | pIC50: < 1
10 | 68000 | Cc1c(C(=O)O)c(C(=O)NC2CC2)nn1C(C)(C)C | 
11 | 22500 | Cc1c(C(=O)O)c(C(=O)NC2CC2)nn1-c1ccccc1 | 
12 | 370 | Cc1c(C(=O)O)c(C(=O)NC2CC2)nn1-c1ccc(Cl)cc1 | 
13 | 33.2 | O=c1sc(Nc2cccc(C(F)(F)F)c2)nc2[nH]ncc12 | 
14 | 28.5 | O=c1sc(Nc2ccc(Br)cc2)nc2[nH]ncc12 | 
15 | 38.5 | O=c1sc(Nc2ccc(Cl)cc2)nc2[nH]ncc12 | 
16 | 48 | O=c1sc(Nc2cccc(Cl)c2)nc2[nH]ncc12 | 
17 | 47.8 | O=c1sc(Nc2ccccc2Cl)nc2[nH]ncc12 | 
18 | 1060 | O=c1sc(Nc2ccc([N+](=O)[O-])cc2)nc2[nH]ncc12 | 
19 | 335 | CCNc1nc2[nH]ncc2c(=O)s1 | 
20 | 211 | CCCCNc1nc2[nH]ncc2c(=O)s1 | 
21 | 10.8 | O=c1sc(NCc2ccccc2)nc2[nH]ncc12 | 

Row | IC50 (read-out: IC50) [µM] | Compound | other results
22 | 66.5 | O=c1sc(NC2CCCCC2)nc2[nH]ncc12 | 
23 | 2.78 | FC(F)(F)c1cccc(Nc2nc3[nH]ncc3c(=S)s2)c1 | 
24 | 21.3 | S=c1sc(Nc2ccc(Cl)cc2)nc2[nH]ncc12 | 
25 | 15.3 | S=c1sc(Nc2cccc(Cl)c2)nc2[nH]ncc12 | 
26 | 43.1 | S=c1sc(Nc2ccccc2Cl)nc2[nH]ncc12 | 
27 | 10.7 | CCNc1nc2[nH]ncc2c(=S)s1 | 
28 | 2.67 | CCCCNc1nc2[nH]ncc2c(=S)s1 | 
29 | 2.84 | S=c1sc(NCc2ccccc2)nc2[nH]ncc12 | 
30 |  | CCC(C)n1c(=O)[nH]c2cc(C)nn2c1=O (configuration not stated) | IC50 (read-out: pIC50 (converted)): 2.6 µM
31 |  | CCn1c(=O)[nH]c2cc(C)nn2c1=O | IC50 (read-out: pIC50 (converted)): 32 µM
32 |  | CCCCn1c(=O)[nH]c2cc(C)nn2c1=O | IC50 (read-out: pIC50 (converted)): 6.61 µM
33 |  | Cc1cc2[nH]c(=O)n(Cc3ccccc3)c(=O)n2n1 | IC50 (read-out: pIC50 (converted)): 42 µM
34 |  | Cc1cc2[nH]c(=O)n(C3CCCCC3)c(=O)n2n1 | IC50 (read-out: pIC50 (converted)): 0.32 µM
35 |  | Cc1cc2[nH]c(=O)n(-c3ccccc3)c(=O)n2n1 | IC50 (read-out: pIC50 (converted)): 169 µM
36 |  | CC/N=c1/sc(=O)[nH]c2cc(C)nn12 | IC50 (read-out: pIC50 (converted)): 2.9 µM
37 |  | CCCC/N=c1/sc(=O)[nH]c2cc(C)nn12 | IC50 (read-out: pIC50 (converted)): 0.57 µM
38 |  | Cc1cc2[nH]c(=O)s/c(=N/Cc3ccccc3)n2n1 | IC50 (read-out: pIC50 (converted)): 18 µM
39 |  | Cc1cc2[nH]c(=O)s/c(=N/C3CCCCC3)n2n1 | IC50 (read-out: pIC50 (converted)): 0.21 µM
40 |  | CN(C)C(=O)Nc1ccc(Cl)c(Cl)c1 [DCMU] | IC50 (read-out: pIC50 (converted)): 0.27 µM
41 |  | CN(C)c1nc(=O)n(C2CCCCC2)c(=O)n1C [HEXAZINONE] | IC50 (read-out: pIC50 (converted)): 0.11 µM
42 |  | O=c1[nH]c2c(c(=O)n1C1CCCCC1)CCC2 [LENACIL] | IC50 (read-out: pIC50 (converted)): 0.08 µM

Row | Compound | IC50 (read-out: IC50) [µM] | other results
43 | Cc1c(C(=O)O)c(C(=O)NC2CC2)nn1-c1c(Cl)cc(C(F)(F)F)cc1Cl | 12200 | 
44 | S=c1sc(Nc2ccc(Br)cc2)nc2[nH]ncc12 | 6.06 | 
45 | S=c1sc(NC2CCCCC2)nc2[nH]ncc12 | 0.64 | 
